Measured values from paper PMC6412891, “Synthesis and Biological Evaluation of Novel Thiazolyl-Coumarin Derivatives as Potent Histone Deacetylase Inhibitors with Antifibrotic Activity” (Molecules, 2019).

Key:
[1] = test system: HDACs HeLa cells nuclear extract; experiment: HDAC inhibitory activity, fluorometric kit, HeLa cell nuclear extract; type: biochemical, human; details: HeLa cell nuclear extract as HDAC source
[2] = Cytotoxicity assay (Alamar Blue) in cardiac fibroblasts; type: cell-based, rat; details: Sprague-Dawley, rat, primary neonatal rat cardiac fibroblasts (CFs), CFs treated for 48 h
HDAC1 human recombinant = biological target: T1, HDAC1 human recombinant (Homo sapiens, UniProt Q13547); experiment: HDAC1 inhibitory activity, fluorometric kit; type: biochemical; details: Class I
T1 construct: purchased Enzo Life Science BML-AK511
T1 sequence (Q13547 whole entry): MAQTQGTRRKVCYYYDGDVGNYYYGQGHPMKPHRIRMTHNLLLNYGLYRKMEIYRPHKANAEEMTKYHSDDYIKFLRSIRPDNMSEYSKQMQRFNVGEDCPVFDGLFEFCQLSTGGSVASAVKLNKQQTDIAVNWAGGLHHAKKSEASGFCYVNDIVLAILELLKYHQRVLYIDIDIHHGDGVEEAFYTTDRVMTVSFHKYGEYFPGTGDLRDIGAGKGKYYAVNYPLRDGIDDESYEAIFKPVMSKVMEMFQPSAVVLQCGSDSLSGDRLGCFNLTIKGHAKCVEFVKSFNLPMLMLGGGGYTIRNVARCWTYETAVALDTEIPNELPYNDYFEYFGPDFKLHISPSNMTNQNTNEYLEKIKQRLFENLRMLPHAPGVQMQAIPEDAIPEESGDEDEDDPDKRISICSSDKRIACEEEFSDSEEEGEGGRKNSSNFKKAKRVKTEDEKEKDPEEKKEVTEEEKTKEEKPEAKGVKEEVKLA

IC50 [1]	IC50 (HDAC1 human recombinant)	SMILES	CC50 at 48 h [2]
66.9 ± 1.8 nM	50.6 ± 2.1 nM	O=C(CCCCC(=O)Nc1nc(-c2cc3ccccc3oc2=O)cs1)NO [Compound 8a, 5-[4-(2-Oxo-2H-chromen-3-yl)-thiazol-2-yl-carbamoyl]-N-hydroxypentanamide]	90.5 ± 5.1 µM
66.7 ± 2.9 nM	60.4 ± 1.7 nM	O=C(CCCCC1CCSS1)Nc1nc(-c2cc3ccccc3oc2=O)cs1 (stereo not drawn) [Compound 5a, 5-[1,2]-Dithiolan-3-yl-N-[4-(2-oxo-2H-chromen-3-yl)-thiazol-2-yl]-pentanamide]	201 ± 20.3 µM
574 ± 24.4 nM	423 ± 30.2 nM	O=C(Nc1nc(-c2cc3ccccc3oc2=O)cs1)c1ccc(O)c(O)c1 [Compound 6a]	140 ± 11.7 µM
6100 ± 390 nM	7690 ± 328 nM	O=C(O)CCCCC(=O)Nc1nc(-c2cc3ccccc3oc2=O)cs1 [Compound 7a]	111 ± 4.4 µM
